# Source: paper PMC9737537, “In Vitro Susceptibility of HIV Isolates with High Growth Capability to Antiretroviral Drugs” (International Journal of Molecular Sciences, 2022)
# Read-outs that look alike come from different tables or passages of the source.
# Tests used:
# Type in all cases: cell-based
# [1] = system: HIV isolates with high growth capability; assay: Antiretroviral drug response (HIV-RNA copies in PHA-PBMC culture, 7 days), pooled HIV isolates; details: for suppression of viral yield in vitro: HIV isolates of Figure 5; for susceptibility of isolates / IC90 values relative to Cmin / Cmax: higher growth capability, without any known drug resistance-related mutation
# Excerpt: (§1) The following nucleotide reverse transcriptase inhibitors were used: emtricitabine (Tokyo Chemical Industry, Tokyo, Japan), lamivudine (Tokyo Chemical Industry, Japan), tenofovir (Selleck Biotech, Tokyo Japan), tenofovir alafenamide (Selleck Biotech, Japan), tenofovir disoproxil fumarate (Tokyo Chemical Industry, Japan), and zidovudine (FUJIFILM Wako, Tokyo, Japan). As it was reported that tenofovir and its prodrugs (tenofovir disoproxil fumarate and tenofovir alafenamide) are measurable in plasma, the antiviral activity of these three synthetic drugs were assessed in vitro [25, 36]. In addition, one non-nucleotide reverse transcriptase inhibitor, efavirenz (Tokyo Chemical Industry, Japan); two protease inhibitors, atazanavir (Selleck Biotech, Japan) and lopinavir (Funakoshi Frontiers in Life Science, Tokyo, Japan); and four integrase inhibitors, bictegravir (Selleck Biotech, Japan), dolutegravir (Selleck Biotech, Japan), elvitegravir (EVG, Selleck Biotech, Japan), and raltegravir (Selleck Biotech, Japan) were analyzed. Representative HIV isolates and a laboratory strain of HIVpNL4-3 were screened for antiretroviral drugs. Briefly, PHA-PBMCs (1.5 × 10^6 cells) were pelleted at 1000 g for 5 min, resuspended with an HIV preparation (10^6 copies) in 100 µL volume, and incubated at 37 °C for 1 h. To remove unbound and non-infectious viruses, the cells were washed twice with RPMI1640 medium and then cultured in different concentrations of antiretroviral compounds (1 mL). The culture was carried out for 7 days, as described above, for growth capability assessment. All procedures were performed in triplicate.
# To determine the susceptibility of HIV isolates with high growth capability to synthetic antiretroviral compounds, we used the in vitro susceptibility of the virus (IC90) and pharmacokinetics of an antiretroviral agent (compared to reported Cmin and Cmax).
# HIV-RNA in the culture medium (140 µL) was extracted using a QIAamp Viral RNA Mini Kit (QIAGEN KK-Japan, Tokyo, Japan) and subjected to quantitative reverse transcription polymerase chain reaction (qRT-PCR). The amount of HIV-RNA was assayed using a Luna Universal One-Step qRT–PCR kit (New England Biolabs Japan, Tokyo, Japan) and forward (GagB-1F, 5′-[…]-3′, HXB2 position: 1359–1388) and reverse (GagB-1R, 5′-[…]-3′, 1500–1474) primers. The PCR signal was assessed by comparison with a standard curve (encompassing 10^2–10^8 copies/reaction of the in vitro-transcribed RNA transcripts).
# The IC50 was calculated using a nonlinear regression curve fit of the dose response curves of each transformed drug concentration and normalized viral load (copies/mL) using GraphPad Prism software (version 8.0). The IC90 was determine using the IC50 and Hill slope factor from the curve fit in the online GraphPad calculator (https://www.graphpad.com/quickcalcs/ECanything1/, accessed on 1 October 2022) for effective concentration. The results are expressed as the mean IC90 of three values obtained in triplicate for each isolate.
# HIV isolate DR1509-397 = assay: Antiretroviral drug response in PHA-PBMC culture, isolate DR1509-397
# Description: as §1, with “The activity of 13 synthetic antiretroviral compounds at concentrations ranging from 0.001 to 20 μM was evaluated against HIV isolates with diverse growth capabilities and without any known drug resistance-related mutation. The” for “The”, “Briefly, PHA-PBMCs (1.5 × 10^6 cells) were pelleted at 1000 g for 5 min, resuspended with an HIV preparation (10^6 copies) in 100 µL volume, and incubated at 37 °C for 1 h. To remove unbound and non-infectious viruses, the cells were washed twice with RPMI1640 medium and then cultured in different concentrations of antiretroviral compounds (1 mL). The culture was carried out for 7 days, as described above, for growth capability assessment. All procedures were performed in triplicate.” left out
# HIV-RNA in the culture medium (140 µL) was extracted using a QIAamp Viral RNA Mini Kit (QIAGEN KK-Japan, Tokyo, Japan) and subjected to quantitative reverse transcription polymerase chain reaction (qRT-PCR). […] The PCR signal was assessed by comparison with a standard curve (encompassing 10^2–10^8 copies/reaction of the in vitro-transcribed RNA transcripts).
# The IC50 was calculated using a nonlinear regression curve fit of the dose response curves of each transformed drug concentration and normalized viral load (copies/mL) using GraphPad Prism software (version 8.0). […] The results are expressed as the mean IC90 of three values obtained in triplicate for each isolate.
# HIV isolate DR1605-400 = assay: Antiretroviral drug response in PHA-PBMC culture, isolate DR1605-400; details: Human immunodeficiency virus 1, 168 h, high growth capability, no known drug resistance-related mutation, 7 days
# Description: as §1, with “The activity of 13 synthetic antiretroviral compounds at concentrations ranging from 0.001 to 20 μM was evaluated against HIV isolates with diverse growth capabilities and without any known drug resistance-related mutation. The” for “The”, “Briefly, PHA-PBMCs (1.5 × 10^6 cells) were pelleted at 1000 g for 5 min, resuspended with an HIV preparation (10^6 copies) in 100 µL volume, and incubated at 37 °C for 1 h. To remove unbound and non-infectious viruses, the cells were washed twice with RPMI1640 medium and then cultured in different concentrations of antiretroviral compounds (1 mL). The culture was carried out for 7 days, as described above, for growth capability assessment. All procedures were performed in triplicate.” left out
# HIV isolate S1506-064 = assay: Antiretroviral drug response in PHA-PBMC culture, isolate S1506-064; details: Human immunodeficiency virus 1, 168 h, high growth capability, no known mutation against tenofovir, 7 days
# Description: as §1, with “The activity of 13 synthetic antiretroviral compounds at concentrations ranging from 0.001 to 20 μM was evaluated against HIV isolates with diverse growth capabilities and without any known drug resistance-related mutation. The” for “The”, “Briefly, PHA-PBMCs (1.5 × 10^6 cells) were pelleted at 1000 g for 5 min, resuspended with an HIV preparation (10^6 copies) in 100 µL volume, and incubated at 37 °C for 1 h. To remove unbound and non-infectious viruses, the cells were washed twice with RPMI1640 medium and then cultured in different concentrations of antiretroviral compounds (1 mL). The culture was carried out for 7 days, as described above, for growth capability assessment. All procedures were performed in triplicate.” left out
# HIV isolate DR1606-521 = assay: Antiretroviral drug response in PHA-PBMC culture, isolate DR1606-521
# Description: as §1, with “The activity of 13 synthetic antiretroviral compounds at concentrations ranging from 0.001 to 20 μM was evaluated against HIV isolates with diverse growth capabilities and without any known drug resistance-related mutation. The” for “The”, “Briefly, PHA-PBMCs (1.5 × 10^6 cells) were pelleted at 1000 g for 5 min, resuspended with an HIV preparation (10^6 copies) in 100 µL volume, and incubated at 37 °C for 1 h. To remove unbound and non-infectious viruses, the cells were washed twice with RPMI1640 medium and then cultured in different concentrations of antiretroviral compounds (1 mL). The culture was carried out for 7 days, as described above, for growth capability assessment. All procedures were performed in triplicate.” left out
# HIV isolate DR1510-726 = assay: Antiretroviral drug response in PHA-PBMC culture, isolate DR1510-726; details: Human immunodeficiency virus 1, 168 h, isolate with drug resistance-related mutation, 7 days
# Description: as §1, with “The activity of 13 synthetic antiretroviral compounds at concentrations ranging from 0.001 to 20 μM was evaluated against HIV isolates with diverse growth capabilities and without any known drug resistance-related mutation. The” for “The”, “Briefly, PHA-PBMCs (1.5 × 10^6 cells) were pelleted at 1000 g for 5 min, resuspended with an HIV preparation (10^6 copies) in 100 µL volume, and incubated at 37 °C for 1 h. To remove unbound and non-infectious viruses, the cells were washed twice with RPMI1640 medium and then cultured in different concentrations of antiretroviral compounds (1 mL). The culture was carried out for 7 days, as described above, for growth capability assessment. All procedures were performed in triplicate.” left out
# HIV isolate DR1606-479 = assay: Antiretroviral drug response in PHA-PBMC culture, isolate DR1606-479; details: Human immunodeficiency virus 1, 168 h, isolate with drug resistance-related mutation, 7 days
# Description: as §1, with “The activity of 13 synthetic antiretroviral compounds at concentrations ranging from 0.001 to 20 μM was evaluated against HIV isolates with diverse growth capabilities and without any known drug resistance-related mutation. The” for “The”, “Briefly, PHA-PBMCs (1.5 × 10^6 cells) were pelleted at 1000 g for 5 min, resuspended with an HIV preparation (10^6 copies) in 100 µL volume, and incubated at 37 °C for 1 h. To remove unbound and non-infectious viruses, the cells were washed twice with RPMI1640 medium and then cultured in different concentrations of antiretroviral compounds (1 mL). The culture was carried out for 7 days, as described above, for growth capability assessment. All procedures were performed in triplicate.” left out
# [2] = Human immunodeficiency virus 1, lowest among the 13 compounds, isolate not specified, read-out: lowest IC90 values
# [3] = Human immunodeficiency virus 1, read-out: 90% inhibitory concentration (IC90)
Compound,"IC90 [1, 2] [nM]",susceptibility of isolates [1],"IC90 [1, 3] [nM]",IC90 values relative to Cmin / Cmax [1],further results
COC(=O)N[C@H](C(=O)N[C@@H](Cc1ccccc1)[C@@H](O)CN(Cc1ccc(-c2ccccn2)cc1)NC(=O)[C@@H](NC(=O)OC)C(C)(C)C)C(C)(C)C [atazanavir],1.3 ± 1.12,retained susceptibility with lower IC90 values,–,–,suppression of viral yield in vitro [1]: remarkably suppressed the viral yield
O=C(NCc1c(F)cc(F)cc1F)c1cn2c(c(O)c1=O)C(=O)N1[C@H]3CC[C@H](C3)O[C@@H]1C2 [bictegravir],–,retained susceptibility with lower IC90 values,–,–,–
C[C@@H]1CCO[C@H]2Cn3cc(C(=O)NCc4ccc(F)cc4F)c(=O)c(O)c3C(=O)N12 [dolutegravir],1.1 ± 0.72,retained susceptibility with lower IC90 values,–,–,suppression of viral yield in vitro [1]: remarkably suppressed the viral yield
O=C1Nc2ccc(Cl)cc2[C@@](C#CC2CC2)(C(F)(F)F)O1 [efavirenz],–,–,3650 ± 770,close to or above Cmin,IC90 relative to Cmin ([1]; isolates both with and without any known drug resistance-related mutation (Figure 5)): above Cmin
COc1cc2c(cc1Cc1cccc(Cl)c1F)c(=O)c(C(=O)O)cn2[C@H](CO)C(C)C [elvitegravir],–,retained susceptibility with lower IC90 values,–,–,–
Nc1nc(=O)n([C@@H]2CS[C@H](CO)O2)cc1F [emtricitabine],–,–,680 ± 370,close to or above Cmin,–
Nc1ccn([C@@H]2CS[C@H](CO)O2)c(=O)n1 [lamivudine],–,–,6830 ± 3960,close to or above Cmin,–
Cc1cccc(C)c1OCC(=O)N[C@@H](Cc1ccccc1)[C@@H](O)C[C@H](Cc1ccccc1)NC(=O)[C@H](C(C)C)N1CCCNC1=O [lopinavir],–,retained susceptibility with lower IC90 values,–,–,–
Cc1nnc(C(=O)NC(C)(C)c2nc(C(=O)NCc3ccc(F)cc3)c(O)c(=O)n2C)o1 [raltegravir],–,retained susceptibility with lower IC90 values,–,–,–
CC(C)OC(=O)[C@H](C)N[P@](=O)(CO[C@H](C)Cn1cnc2c(N)ncnc21)Oc1ccccc1 [tenofovir alafenamide],0.3 ± 0.23,retained susceptibility with lower IC90 values,–,–,activity against resistant isolates ([1]; isolates with drug resistance-related mutations in tenofovir disoproxil fumarate): active
C[C@H](Cn1cnc2c(N)ncnc21)OCP(=O)(O)O [tenofovir],–,–,2050 ± 400,above Cmax,"IC90 (HIV isolate DR1509-397; Human immunodeficiency virus 1, 168 h, high growth capability, no known drug resistance-related mutation, PHA-PBMC, 7 days, read-out: IC90): 2000 ± 400 nM; IC90 (HIV isolate DR1509-397; Human immunodeficiency virus 1, screened using two additional blood sources (three different blood sources, Figure 2B), read-out: mean IC90): 1900 ± 40 nM; virus production in the presence of drug (HIV isolate DR1509-397; tenofovir at 1 μM (close to Cmax)): hardly showed the decrease in virus production; IC90 (HIV isolate DR1605-400): 1400 ± 870 nM; IC90 (HIV isolate S1506-064): 2800 ± 470 nM; IC90 (HIV isolate DR1606-521; Human immunodeficiency virus 1, 168 h, isolate with drug resistance-related mutation, PHA-PBMC, 7 days, read-out: IC90): 8300 ± 120 nM; IC90 (HIV isolate DR1606-521; Human immunodeficiency virus 1, tenofovir-resistant isolate, above Cmax (Figure 4), read-out: concentration required to fully suppress the number of viral copies (printed as IC90)): 10000 nM; IC90 (HIV isolate DR1510-726): 7700 ± 60 nM; IC90 (HIV isolate DR1606-479): 8500 ± 100 nM"
Cc1cn([C@H]2C[C@H](N=[N+]=[N-])[C@@H](CO)O2)c(=O)[nH]c1=O [zidovudine],1.5 ± 1.11,retained susceptibility with lower IC90 values,–,–,–
